Test: Measurement of plasma concentration after patch application
Type: in vivo, human
Conditions: for AUC(0-t) / Cmax: male, human, in vivo
Protocol: The blood was collected at each of 0, 0.5, 1, 2, 3, 4, 6, 8, 10, 12, 18, and 24 hours from the start of the application, and the amount of blood collected each time was 7 mL.
The plasma concentrations of the methyl salicylate, its metabolite salicylic acid, and the 1-menthol were each measured. The measurement was performed by liquid chromatography-mass spectrometry for the salicylic acid and by gas chromatography-mass spectrometry for the methyl salicylate and the 1-menthol. Each of the measurement methods was validated beforehand to confirm measurement reliability. Incidentally, values obtained by subtracting an endogenous concentration before the application (measurement value on 0 hour from the start of the application) from an actual measurement value were used as plasma concentrations during the application. The Cmax and AUC0-24 were calculated according to the changes in the measurement values of these plasma concentrations over time.
Changes in the plasma concentrations of the salicylic acid, the methyl salicylate, and the 1-menthol over time are shown in FIG. 4 to FIG. 6. In addition, the pharmacokinetic parameters (mean, maximum value, and minimum value of Cmax and AUC0-24) of each of the drugs are shown in Table 6. Incidentally, a mean in the figure was an average value from the seven human subjects and represented using a standard deviation (SD). This measurement of the plasma concentrations was performed according to the guideline of FDA (U.S. Food and Drug Administration) (Gaidance for Industry=Bioanalytical Method Validation).

[1] = plasma, 280 cm^2 adhesive patch of Example 1 (methyl salicylate 336 mg, l-menthol 100 mg) applied 8 hours, seven healthy males, baseline-subtracted
[2] = plasma, 280 cm^2 adhesive patch of Example 1 applied 8 hours, seven healthy males

Row | Structure (SMILES) | AUC(0-t) (AUC0-24, Maximum Value) [ng·h/mL] | AUC(0-t) (AUC0-24, Minimum Value) [ng·h/mL] | Cmax (Maximum Value) [ng/mL] | Cmax (Minimum Value) [ng/mL] | AUC0-24, Mean ± SD [1] [ng·h/mL] | Cmax, Mean ± SD [1] [ng/mL] | AUC0-24, Maximum Value [2] [ng·h/mL] | AUC0-24, Minimum Value [2] [ng·h/mL] | Cmax, Maximum Value [2] [ng/mL] | Cmax, Minimum Value [2] [ng/mL]
1 | COC(=O)c1ccccc1O [Methyl Salicylate] | 50 | 8.1 | 33 | 3.5 | – | – | – | – | – | –
2 | O=C(O)c1ccccc1O [Salicylic Acid] | 11800 | 3950 | 1770 | 705 | – | – | – | – | – | –
3 | CC(C)[C@@H]1CC[C@@H](C)C[C@H]1O [l-Menthol] | – | – | – | – | 53.6 ± 33.4 | 10.7 ± 6.4 | 109 | 15.4 | 22.5 | 4.5

From US8382729B2, “Adhesive patch” (Hisamitsu Pharmaceutical Co., Inc., priority 2008, dated 2013)
